# Measured values published in patent US20150025077A1 (COYOTE PHARMACEUTICALS, INC., priority 2012, published 2015).
# Tests used:
# [1] = system: HSP70; experiment: HSP70 induction in rat hippocampus with or without kainic acid injection (immunohistochemistry, western blot); assay type: in vivo; conditions: KA stereotactically injected in hippocampus; localized in the injection site
# Procedure: Stereotactic injections of Kainic acid into rat hippocampus tissues led to increased damages in neurons. […] Under this condition, neurons and HSP70 expression was stained by immunohistochemistry techniques. HSP70 expression was induced in a very specific area only that KA was injected. The induced area was not stained by HSP70 antibody when KA was not injected, but CNS-102 was dosed.
# HSP70 induction by dosing CNS-102 in the absence of the KA injection was limited in western blot experiments using hippocampus lysates. 120% or 130% of HSP70 expression could be seen by comparing those of vehicle dosing control experiments.
# [2] = system: Sprague-Dawley rats; experiment: Kainic acid induced neurodegeneration and seizure behaviors in rats (Examples 20, 21); assay type: in vivo, rat; conditions: oral
# Description: Seizure behaviors were observed and scored (Ref. R. J. Racine, Modification of seizure activity by electrical stimulation: II. Motor seizure, Electroencephalogr. Clin. […] Modifications were made for the methods). Brain tissues of rats were sectioned on histology slides, and neurons in hippocampus tissues were stained by Nissl. Neurons in dentate gyrus tissues damaged by Kainic acid were quantified. The Memantine composition used in comparison refers to a commercially available NMDA receptor […]. […] Seizure behaviors were observed and scored (Ref. R. J. Racine, Modification of seizure activity by electrical stimulation: II. Motor seizure, Electroencephalogr. Clin. […] Modifications were made for the methods). Brain tissues of rats were sectioned on histology slides, and neurons in hippocampus tissues were stained by Nissl. Neurons damaged by Kainic acid and behavior scores were quantified.
# [3] = system: Rap1; experiment: Prenylation of Rap1 in Neuro2A cells, western blotting; assay type: cell-based, mouse; conditions: 100 nM
# Summary of the method: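 Mouse Neuro2A cells in DMEM/10% FBS were treated with compound for 24 h, then GGTI-298 was added for a further 24 h. Un-prenylated and total Rap1 were quantified by western blot, normalized to GAPDH; the un-prenylated/total ratio was expressed as percent of GGTI-only control, mean of two biological repeats.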
# [4] = system: HSP70; experiment: HSP70 gene expression in rat brain tissue, qRT-PCR; assay type: in vivo; conditions: 12 mg/kg oral
# Procedure: […] Expression of selected HSPs was detected using qRT-PCR with expression of the GAPDH gene used as the control. To represent the effect of CNS-102 on HSP expression, mean fold change is calculated as CNS-102 treated/PBS treated for each HSP at each time point.
# [5] = system: HSP70; experiment: HSP70 expression in cortex and hippocampus in vivo, western blot; parameters: species or system rat; HSP70 Expression (average, western blot): scale not given here; conditions: for delta HSP70 expression, CNS-102 minus PBS: 12 mg/kg oral
# Procedure: The time course of protein expression, as measured by western blot for HSP70, was determined in triplicate for hippocampus, and cortex tissue samples taken from each of 5 animals per group at each of four time points (24, 48, 72, and 96 h) after treatment with either PBS or 12 mg/kg CNS-102, administered orally. The average expression for each treatment group is calculated at each time point for each tissue using PROC MIXED in SAS and are tabulated, along with the difference (delta) between treatment averages and a p-value comparing the difference to zero, below.
# [6] = system: HSP70; experiment: HSP70 expression in neuro2A cells, western blot; assay type: cell-based, mouse; conditions: for HSP70 western signal (absence of compounds = 1.00): 48 hours, GGTI-298
# Procedure: (§1) Differentiation was induced and cells incubated with geranylgeranyl transferase I inhibitor, GGTI-298. Cells were harvested and lysates were prepared and analyzed by western blot for HSP70 and HSP90. Western signals in the absence of the compounds were normalized as 1.00.
# [7] = system: HSP90; experiment: HSP90 expression in neuro2A cells, western blot; assay type: cell-based, mouse; conditions: 48 hours, GGTI-298
# Procedure: as §1
# [8] = system: Mouse Neuro2A neuroblastoma cells; experiment: Neuro2A cells with neurites after GGTI-298 (Example 16); assay type: cell-based; conditions: 10 μM
# Procedure: Mouse Neuro2A neuroblastoma cells were cultured in DMEM supplemented with 10% FBS for 24 hrs. […] Then differentiation was induced by retinoic acid in DMEM supplemented with 2% FBS. The cell culture was incubated with a Geranylgeranyl Transferase inhibitor, GGTI-298. After 24 hrs incubation, cells with neurites were counted.
# [9] = system: RhoA; experiment: Active RhoA to total RhoA in Neuro2A cells (G-LISA, ELISA); assay type: cell-based, mouse; conditions: 48 hrs, active RhoA to total RhoA as percentage of DMSO treatments
# Procedure: Mouse neuroblastoma Neuro2A cells were cultured in DMEM supplemented with 10% FBS for 24 hrs. […] Cell lysates were quantified and subjected either to active RhoA assay using G-LISA RhoA activation Assay Biochem Kit (Cytoskeleton Inc), or to total RhoA assay using Total RhoA ELISA Kit (Cytoskeleton Inc). The results were calculated as ratio of active RhoA to total RhoA and averaged from 3 biological repeats of one experiment with background subtraction. The data was presented as percentage of DMSO treatments.
smiles,measurement,setting,value
CC(=O)CC/C=C(\C)CC/C=C(\C)CC/C=C(\C)CCC=C(C)C [CNS-102],HSP70 induction,[1],strong induction of HSP70
same,Mean of Hippocampus CA3 Neurons Damaged,[2]; 3 mg/Kg rat,10.25 Arbitrary units
same,Mean of Seizure behaviors scores,[2]; 3 mg/Kg rat,27.5
same,Mean of Hippocampus CA3 Neurons Damaged,[2]; 12 mg/Kg rat,10.16 Arbitrary units
same,Mean of Seizure behaviors scores,[2]; 12 mg/Kg rat,22.5
same,Mean of Hippocampus CA3 Neurons Damaged,[2]; 25 mg/Kg rat,1.97 Arbitrary units
same,Mean of Seizure behaviors scores,[2]; 25 mg/Kg rat,25.75
same,Seizure behaviors scores,"[2]; Kainic acid, vehicle 34",18.8
same,prenylation of Rap1 compared to control,"[3]; student's t-test, P=0.08",slightly increase the prenylation of Rap1
same,unprenylated/total RAP1 (%),"[3]; with GGTI-298, percentage of control (GGTI only)",59%
same,"HSP70 mean fold change (CNS-102 treated/PBS treated), mean ± SD",[4]; 24 h,1.18 ± 0.01
same,"HSP70 mean fold change (CNS-102 treated/PBS treated), mean ± SD",[4]; 48 h,1.48 ± 0.02
same,"HSP70 mean fold change (CNS-102 treated/PBS treated), mean ± SD",[4]; 72 h,1.81 ± 0.01
same,"HSP70 mean fold change (CNS-102 treated/PBS treated), mean ± SD",[4]; 96 h,1.58 ± 0.03
same,"HSP70 Expression (average, western blot)","[5]; Cortex, 24 hours after 12 mg/kg oral, PBS −0.256",−0.016
same,"delta HSP70 expression, CNS-102 minus PBS","[5]; Cortex, 24 hours",0.24
same,"HSP70 Expression (average, western blot)","[5]; Cortex, 48 hours after 12 mg/kg oral, PBS −0.56",−0.45
same,"delta HSP70 expression, CNS-102 minus PBS","[5]; Cortex, 48 hours",0.11
same,"HSP70 Expression (average, western blot)","[5]; Cortex, 72 hours after 12 mg/kg oral, PBS 0.01",0.14
same,"delta HSP70 expression, CNS-102 minus PBS","[5]; Cortex, 72 hours",0.13
same,"HSP70 Expression (average, western blot)","[5]; Cortex, 96 hours after 12 mg/kg oral, PBS −0.15",0.04
same,"delta HSP70 expression, CNS-102 minus PBS","[5]; Cortex, 96 hours",0.19
same,"HSP70 Expression (average, western blot)","[5]; Hippocampus, 24 hours after 12 mg/kg oral, PBS −0.072",−0.159
same,"delta HSP70 expression, CNS-102 minus PBS","[5]; Hippocampus, 24 hours",−0.088
same,"HSP70 Expression (average, western blot)","[5]; Hippocampus, 48 hours after 12 mg/kg oral, PBS −0.18",0.02
same,"delta HSP70 expression, CNS-102 minus PBS","[5]; Hippocampus, 48 hours",0.2
same,"HSP70 Expression (average, western blot)","[5]; Hippocampus, 72 hours after 12 mg/kg oral, PBS −0.2",−0.06
same,"delta HSP70 expression, CNS-102 minus PBS","[5]; Hippocampus, 72 hours",0.14
same,"HSP70 Expression (average, western blot)","[5]; Hippocampus, 96 hours after 12 mg/kg oral, PBS −0.49",−0.32
same,"delta HSP70 expression, CNS-102 minus PBS","[5]; Hippocampus, 96 hours",0.17
same,HSP70 western signal (absence of compounds = 1.00),[6]; 100 nM,1.38
same,HSP70 western signal (absence of compounds = 1.00),[6]; 1 μM,2.05
same,HSP70 western signal (absence of compounds = 1.00),[6]; 10 μM,2.14
same,induction of HSP70 expression,[6]; various concentrations,induce expression of HSP70
same,HSP90 western signal (absence of compounds = 1.00),[7]; 100 nM,3.29
same,HSP90 western signal (absence of compounds = 1.00),[7]; 1 μM,1.74
same,HSP90 western signal (absence of compounds = 1.00),[7]; 10 μM,1.21
same,Mean of cell numbers (cells with neurites),[8],0.738 Arbitrary units
same,% Relative RhoGTPase Activity,[9]; CNS-102 10 nM,103.6%
same,% Relative RhoGTPase Activity,[9]; CNS-102 100 nM,120.1%
